# In US9067898B1, “Isothiazole derivatives as GPR120 agonists for the treatment of type II diabetes” (Janssen Pharmaceutica NV, priority 2014, dated 2015):
# Target: T1, Human GPR120 short form (Homo sapiens, UniProt Q5NUL3)
# T1 construct: expressed in transfected cells
# T1 sequence (Q5NUL3 1-361): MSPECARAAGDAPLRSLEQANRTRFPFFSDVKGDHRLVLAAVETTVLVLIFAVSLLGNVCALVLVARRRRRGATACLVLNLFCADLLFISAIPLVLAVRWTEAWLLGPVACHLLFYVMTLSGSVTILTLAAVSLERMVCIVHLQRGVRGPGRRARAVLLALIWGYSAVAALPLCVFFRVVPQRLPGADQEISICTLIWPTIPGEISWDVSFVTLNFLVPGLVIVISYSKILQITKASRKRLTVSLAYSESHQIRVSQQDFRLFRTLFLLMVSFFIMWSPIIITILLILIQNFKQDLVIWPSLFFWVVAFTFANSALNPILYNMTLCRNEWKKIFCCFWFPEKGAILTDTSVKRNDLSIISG
# Assay: Human GPR120 calcium flux assay (FLIPR), Procedure Calcium A
# Format: cell-based
# Conditions: HEK-293 cells expressing human GPR120 short form, 2500 cells/well; read-out: GPR120 Ca2+ Assay A EC50
# Description: This in vitro assay serves to assess test compound agonist activity against the short splice variant (SVS with Accession number NM_001195755.1 confirmed by sequencing data) of the GPR120 receptor. The Human Short splice variant #2 (NM_001195755.1) is missing an in-frame coding exon compared to variant 1 (the Human Long splice variant NM_181745.3), resulting in a shorter isoform (GPR120-S) lacking a 16 aa protein segment compared to isoform GPR120-L. The assay platform utilizes HEK-293 cells stably transfected to express the Human GPR120 short form. These cells are first loaded with the Ca^+2 sensitive dye, Fluo-4 NW. Upon stimulation, intracellular released Ca^+2 can bind to the dye and alter its fluorescence intensity. This increase in fluorescence signal, and thus the flux in intracellular [Ca^2+], is detected and quantitated by fluorescence imaging using a FLIPR reader. The effect of the agonist is measured as a function of concentration and used to calculate an EC50 based upon a response curve.
# In this procedure 2500 cells/well were employed.
# A Human GPR120 clone (Genbank accession number NM_001195755.1) was placed into the pcDNA3.1 mammalian expression vector carrying the neomycin resistance gene. A stable mammalian cell was generated by placing the above clone into a HEK293 background. Clonal cells responding to long chain fatty acids had expression levels of GPR120 confirmed by RT-qPCR. Human HEK-GPR120 cells were cultured in Dulbecco's Modified Eagle's Medium (DMEM)/F12 medium supplemented with 10% fetal bovine serum (FBS), 1% L-Glutamine and 1% penicillin/streptomycin and 0.5 mg/ml G-418. Cells were split 2 times a week to keep the cells in the log-phase growth.
# In preparation for the assay, HEK cells stably transfected with Human GPR120 (2.5K cells per well in 25 uL growth medium) were seeded into 384-well plates and then incubated overnight (37° C., 5% CO2). The next day, the media was changed to 20 μL assay buffer and the cell starved for 1 h at 37° C. The dye loading solution (2× dye) was prepared using 10 mL assay buffer, 100 μL of 250 mM probenecid, 1 bottle of Component A, and 20 μl of dye in DMSO. Twenty μL of the 2× dye loading buffer was then added to each well. The plates were incubated at 37° C. for 30 min, then at room temperature for an additional 15 minutes, before performing the assay on FLIPR. Test compounds were prepared in assay buffer (2 uL of cpd+198 uL assay buffer, final DMSO in assay plate is 0.2%) at the desired concentration, more particularly at 100, 50, 25, 12.5, 6.25, 3.125, 1.562, 0.781, 0.391, 0.195, 0.098, 0.049, 0.024 and 0.012 μM.
# The assay was performed on a FLIPR plate reader using the following parameters. Baseline was read for 10 seconds at 1 sec intervals. The program was set to transfer 10 μL of ligand from compound plate to cell plate after baseline reading. Aspiration was executed at: 10 μL/sec speed, 4.6 μL height; Dispensing was executed at: 30 μL/sec speed, 45 μL height. After compound addition, each well was read for 300 sec, with measurements collected at 1 sec intervals.
# The kinetic data from the FLIPR was based upon a 5 minute window for data collection. The fluorescence of each sample well was used for individual calculations of a normalized RFU value, which was defined as maximum response minus the minimum response. The normalized fluorescence reading (RFU) was calculated as follows: RFU=Fmax−Fmin The data were fitted to a sigmoidal dose-response curve with a variable Hill slope (<2) using nonlinear regression with GraphPad Prism 5.0 to calculate the EC50 values. The Fitting Equation was: Y=Bottom+(Top−Bottom)/(1+10^((Log EC50−X)*HillSlope)), where X is the log of the concentration and Y is the response.
row,EC50,Structure (SMILES)
1,924 nM,"CCc1ccc(-c2cc(C(F)(F)F)sc2COc2c(F)cc(CCC(=O)O)cc2F)cc1 [Cpd 22, 3-(4-((3-(4-ethylphenyl)-5-(trifluoromethyl)thiophen-2-yl)methoxy)-3,5-difluorophenyl)propanoic acid]"
2,166 nM,"O=C(O)CCc1ccc(OCc2c(-c3ccc(Cl)cc3)csc2C(F)(F)F)c(F)c1F [Cpd 47, 3-(4-((4-(4-chlorophenyl)-2-(trifluoromethyl)thiophen-3-yl)methoxy)-2,3-difluorophenyl)propanoic acid]"
3,202 nM,"C#Cc1ccc(-c2nscc2COc2ccc(CCC(=O)O)c(C)c2C)cc1 [Cpd 161, 3-(4-((3-(4-ethynylphenyl)isothiazol-4-yl)methoxy)-2,3-dimethylphenyl)propanoic acid]"
4,263 nM,"COc1cc(-c2nsc(C(F)(F)F)c2COc2c(F)cc(CCC(=O)O)cc2F)ccc1Cl [Cpd 177, 3-(4-((3-(4-chloro-3-methoxyphenyl)-5-(trifluoromethyl)isothiazol-4-yl)methoxy)-3,5-difluorophenyl)propanoic acid]"
5,278 nM,"Cc1c(CCC(=O)O)ccc(OCc2c(-c3ccc(Cl)cc3)csc2C(F)(F)F)c1C [Cpd 57, 3-(4-((4-(4-chlorophenyl)-2-(trifluoromethyl)thiophen-3-yl)methoxy)-2,3-dimethylphenyl)propanoic acid]"
6,129 nM,"CC(=O)c1ccc(-c2nsc(C(F)(F)F)c2COc2c(F)cc(CCC(=O)O)cc2F)cc1 [Cpd 131, 3-(4-[[3-(4-acetylphenyl)-5-(trifluoromethyl)-1,2-thiazol-4-yl]methoxy]-3,5-difluorophenyl) propanoic acid]"
7,125 nM,"CCc1ccc(-c2nsc(C(F)(F)F)c2COc2ccc(CCC(=O)O)c3ccccc23)cc1 [Cpd 130, 3-(4-[[3-(4-ethylphenyl)-5-(trifluoromethyl)-1,2-thiazol-4-yl]methoxy]naphthalen-1-yl)propanoic acid]"
8,688 nM,"CCCc1ccc(-c2snc(Cl)c2COc2ccc(CCC(=O)O)c(C)c2C)cc1 [Cpd 218, 3-(4-[[3-chloro-5-(4-propylphenyl)-1,2-thiazol-4-yl]methoxy]-2,3-dimethylphenyl)propanoic acid]"
9,28 nM,"O=C(O)CCc1ccc(OCc2c(-c3ccc(Cl)cc3)nsc2C(F)(F)F)c(F)c1 [Cpd 68, 3-(4-[[3-(4-chlorophenyl)-5-(trifluoromethyl)-1,2-thiazol-4-yl]methoxy]-3-fluorophenyl)propanoic acid]"
10,99 nM,"Cc1c(CCC(=O)O)ccc(OCc2c(Cl)nsc2-c2ccc(C(F)(F)F)cc2)c1C [Cpd 112, 3-[4-([3-chloro-5-[4-(trifluoromethyl)phenyl]-1,2-thiazol-4-yl]methoxy)-2,3-dimethylphenyl]propanoic acid]"
11,1090 nM,"Cc1ccc(-c2snc(C(F)(F)F)c2COc2ccc(CCC(=O)O)c(C(F)(F)F)c2)c(C)c1 [Cpd 232, 3-(4-[[5-(2,4-dimethylphenyl)-3-(trifluoromethyl)-1,2-thiazol-4-yl]methoxy]-2-(trifluoromethyl)phenyl)propanoic acid]"
12,188 nM,"CCc1ccc(-c2nsc(C(F)(F)F)c2COc2ccc(CCC(=O)O)c(F)c2C(F)(F)F)cc1 [Cpd 157, 3-(4-[[3-(4-ethylphenyl)-5-(trifluoromethyl)-1,2-thiazol-4-yl]methoxy]-2-fluoro-3-(trifluoromethyl)phenyl)propanoic acid]"
13,564 nM,"CCc1ccc(-c2sc(C)c(C(F)(F)F)c2COc2ccc(CCC(=O)O)c(C)c2C)cc1 [Cpd 61, 3-(4-[[2-(4-ethylphenyl)-5-methyl-4-(trifluoromethyl)thiophen-3-yl]methoxy]-2,3-dimethylphenyl) propanoic acid]"
14,566 nM,"Cc1cc(OCc2c(-c3c(F)cc(Cl)cc3F)nsc2C(F)(F)F)c(F)cc1CCC(=O)O [Cpd 207, 3-(4-((3-(4-chloro-2,6-difluorophenyl)-5-(trifluoromethyl)isothiazol-4-yl)methoxy)-5-fluoro-2-methylphenyl)propanoic acid]"
15,114 nM,"CCc1ccc(-c2snc(Cl)c2COc2c(F)cc(CCC(=O)O)cc2F)cc1 [Cpd 124, 3-(4-[[3-chloro-5-(4-ethylphenyl)-1,2-thiazol-4-yl]methoxy]-3,5-difluorophenyl)propanoic acid]"
16,747 nM,"Cc1ccc(-c2csc(C(F)(F)F)c2COc2c(F)cc(CCC(=O)O)cc2F)cn1 [Cpd 62, 3-(3,5-difluoro-4-((4-(6-methylpyridin-3-yl)-2-(trifluoromethyl)thiophen-3-yl)methoxy)phenyl)propanoic acid]"
17,160 nM,"COc1cc(-c2nsc(C(F)(F)F)c2COc2ccc(CCC(=O)O)c(C)c2C)ccc1Cl [Cpd 144, 3-(4-((3-(4-chloro-3-methoxyphenyl)-5-(trifluoromethyl)isothiazol-4-yl)methoxy)-2,3-dimethylphenyl)propanoic acid]"
18,303 nM,"COc1ccc(-c2snc(Cl)c2COc2ccc(CCC(=O)O)c(C)c2C)cc1 [Cpd 186, 3-(4-[[3-chloro-5-(4-methoxyphenyl)-1,2-thiazol-4-yl]methoxy]-2,3-dimethylphenyl)propanoic acid]"
19,281 nM,"COc1ccc(-c2snc(OC)c2COc2c(F)cc(CCC(=O)O)cc2F)cc1 [Cpd 182, 3-(3,5-difluoro-4-[[3-methoxy-5-(4-methoxyphenyl)-1,2-thiazol-4-yl]methoxy]phenyl)propanoic acid]"
20,332 nM,"CCc1ccc(-c2nsc(C(F)(F)C(F)(F)F)c2COc2ccc(CCC(=O)O)c(C)c2C)cc1 [Cpd 192, 3-(4-[[3-(4-ethylphenyl)-5-(pentafluoroethyl)-1,2-thiazol-4-yl]methoxy]-2,3-dimethylphenyl)propanoic acid]"
21,606 nM,"O=C(O)CCc1cc(F)c(OCc2c(C3CCOC3)nsc2C(F)(F)F)c(F)c1 (stereo not shown) [Cpd 214, 3-(3,5-difluoro-4-((3-(tetrahydrofuran-3-yl)-5-(trifluoromethyl)isothiazol-4-yl)methoxy)phenyl)propanoic acid]"
22,80 nM,"CCc1ccc(-c2nsc(C(F)(F)F)c2COc2ccc(CCC(=O)O)c3c2CCC3)cc1 [Cpd 103, 3-(7-[[3-(4-ethylphenyl)-5-(trifluoromethyl)-1,2-thiazol-4-yl]methoxy]-2,3-dihydro-1H-inden-4-yl)propanoic acid]"
23,597 nM,"Cc1ccc(-c2snc(-c3ccccc3)c2COc2c(F)cc(CCC(=O)O)cc2F)c(F)c1 [Cpd 211, 3-(3,5-difluoro-4-[[5-(2-fluoro-4-methylphenyl)-3-phenyl-1,2-thiazol-4-yl]methoxy]phenyl)propanoic acid]"
24,510 nM,"COc1ccc(-c2csc(C(F)(F)F)c2COc2ccc(CCC(=O)O)c(C)c2C)cc1 [Cpd 60, 3-(4-((4-(4-methoxyphenyl)-2-(trifluoromethyl)thiophen-3-yl)methoxy)-2,3-dimethylphenyl)propanoic acid]"
25,90 nM,"Cc1ccc(-c2csc(C(F)(F)F)c2COc2c(F)cc(CCCO)cc2F)cn1 [Cpd 36, 3-(3,5-difluoro-4-((4-(6-methylpyridin-3-yl)-2-(trifluoromethyl)thiophen-3-yl)methoxy)phenyl)propan-1-61]"
